Assay results: patent US10947242B2, “[1,2,4]triazolo[1,5and#8208;A]pyrimidine compounds as PDE2 inhibitors” (Janssen Pharmaceutica NV, priority 2016, dated 2021)
Where two headings read alike, the source gives them in different places.

Experiments:
[1] = target: T1, Human recombinant PDE2A (hPDE2A) (Homo sapiens, UniProt O00408); assay: In vitro assay PDE2A (SPA, 3H-cGMP hydrolysis); format: biochemical; details: for Emax: read-out: hPDE2A Emax
T1 construct: His tag (inferred from metal chelate purification); made in house; host or cells: Sf9 insect cells (baculovirus)

[2] = target: T2, Human recombinant PDE3A (hPDE3A) (Homo sapiens, UniProt Q14432); assay: In vitro assay PDE3A (SPA, 3H-cAMP hydrolysis); format: biochemical; details: for IC50: hPDE3B pIC50, read-out: pIC50 (converted); for Emax: read-out: hPDE3B Emax;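 on all read-outs here: the method names PDE3A and the table heading PDE3B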
T2 construct: purchased Scottish Biomedical; host or cells: Sf9 insect cells
Outline: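 Human PDE3A, cloned from brain, as partially purified Sf9 lysate. Substrate 0.4 μM cAMP plus [3H]-cAMP (2.4 μCi/ml final) in 50 mM Tris pH 7.8, 8.3 mM MgCl2, 1.7 mM EGTA, 60 min at room temperature, 1% DMSO final. Hydrolysis read by SPA scintillation counting against no-enzyme blanks and DMSO controls.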

[3] = target: T3, Human recombinant PDE10A (hPDE10A) (Homo sapiens, UniProt Q9Y233); assay: In vitro assay PDE10A, human clone (SPA, 3H-cAMP hydrolysis); format: biochemical
T3 construct: His tag (inferred from metal chelate purification); made in house; host or cells: Sf9 insect cells (baculovirus)
Outline: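 Human recombinant PDE10A was expressed in Sf9 cells via baculovirus and incubated with compound in 50 mM Tris pH 7.8, 8.3 mM MgCl2, 1.7 mM EGTA. Substrate was 60 nM cAMP plus 0.008 μCi 3H-cAMP for 60 min at room temperature, read by SPA scintillation counting. Controls used 1% DMSO, and blanks omitted enzyme.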

PDE2A = target: T4, PDE2A (Rattus norvegicus, UniProt Q01062); assay: PDE2 occupancy by test compounds, ex-vivo autoradiography with [3H]B-17a; format: in vivo, Male Wistar rats; details: for receptor occupancy at 10 mg/kg: percentage receptor occupancy, ex-vivo autoradiography, striatum; for ED50: read-out: PDE Occupancy ED50
T4 construct: Twenty μm-thick striatal sections were cut; from tissue; host or cells: rat brain, striatal sections
T4 sequence (Q01062 1-928): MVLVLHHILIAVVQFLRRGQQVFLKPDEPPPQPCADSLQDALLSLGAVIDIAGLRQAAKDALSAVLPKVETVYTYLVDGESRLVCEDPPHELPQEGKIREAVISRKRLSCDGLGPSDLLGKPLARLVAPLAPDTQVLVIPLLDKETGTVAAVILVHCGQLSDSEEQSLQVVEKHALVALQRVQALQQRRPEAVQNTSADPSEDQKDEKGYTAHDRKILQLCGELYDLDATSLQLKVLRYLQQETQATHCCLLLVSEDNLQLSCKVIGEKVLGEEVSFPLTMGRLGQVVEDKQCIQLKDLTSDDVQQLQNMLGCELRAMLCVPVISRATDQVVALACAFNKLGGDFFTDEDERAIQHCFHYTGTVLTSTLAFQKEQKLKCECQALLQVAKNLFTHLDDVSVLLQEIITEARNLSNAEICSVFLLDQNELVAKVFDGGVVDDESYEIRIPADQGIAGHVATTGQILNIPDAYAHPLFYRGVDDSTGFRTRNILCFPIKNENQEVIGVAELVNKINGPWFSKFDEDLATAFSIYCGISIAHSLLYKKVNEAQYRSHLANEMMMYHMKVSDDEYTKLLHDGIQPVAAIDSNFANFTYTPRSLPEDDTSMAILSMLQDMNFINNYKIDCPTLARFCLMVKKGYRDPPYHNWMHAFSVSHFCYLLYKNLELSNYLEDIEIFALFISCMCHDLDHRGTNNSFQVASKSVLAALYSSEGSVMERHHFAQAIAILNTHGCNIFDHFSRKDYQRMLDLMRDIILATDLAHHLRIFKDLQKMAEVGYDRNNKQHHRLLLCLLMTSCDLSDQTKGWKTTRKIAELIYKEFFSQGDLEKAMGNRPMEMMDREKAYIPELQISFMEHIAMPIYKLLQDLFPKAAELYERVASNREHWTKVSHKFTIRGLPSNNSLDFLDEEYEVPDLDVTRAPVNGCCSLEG

[4] = read-out: hPDE2A pIC50 (converted)
[5] = human clone by default (no (r) mark), read-out: hPDE10A2 or rPDE10A2 Emax
[6] = human clone by default (no (r) mark), read-out: hPDE10A2 or rPDE10A2 pIC50 (converted)
[7] = human clone (h), default, read-out: hPDE10A2 Emax
[8] = human clone (h), default, read-out: hPDE10A2 pIC50 (converted)
[9] = human recombinant PDE2A, 10 μM cGMP substrate, read-out: hPDE2A pIC50 (converted)
[10] = hPDE2A pIC50, human recombinant PDE2A, 10 μM cGMP substrate

T3 sequence (Q9Y233 267-1055): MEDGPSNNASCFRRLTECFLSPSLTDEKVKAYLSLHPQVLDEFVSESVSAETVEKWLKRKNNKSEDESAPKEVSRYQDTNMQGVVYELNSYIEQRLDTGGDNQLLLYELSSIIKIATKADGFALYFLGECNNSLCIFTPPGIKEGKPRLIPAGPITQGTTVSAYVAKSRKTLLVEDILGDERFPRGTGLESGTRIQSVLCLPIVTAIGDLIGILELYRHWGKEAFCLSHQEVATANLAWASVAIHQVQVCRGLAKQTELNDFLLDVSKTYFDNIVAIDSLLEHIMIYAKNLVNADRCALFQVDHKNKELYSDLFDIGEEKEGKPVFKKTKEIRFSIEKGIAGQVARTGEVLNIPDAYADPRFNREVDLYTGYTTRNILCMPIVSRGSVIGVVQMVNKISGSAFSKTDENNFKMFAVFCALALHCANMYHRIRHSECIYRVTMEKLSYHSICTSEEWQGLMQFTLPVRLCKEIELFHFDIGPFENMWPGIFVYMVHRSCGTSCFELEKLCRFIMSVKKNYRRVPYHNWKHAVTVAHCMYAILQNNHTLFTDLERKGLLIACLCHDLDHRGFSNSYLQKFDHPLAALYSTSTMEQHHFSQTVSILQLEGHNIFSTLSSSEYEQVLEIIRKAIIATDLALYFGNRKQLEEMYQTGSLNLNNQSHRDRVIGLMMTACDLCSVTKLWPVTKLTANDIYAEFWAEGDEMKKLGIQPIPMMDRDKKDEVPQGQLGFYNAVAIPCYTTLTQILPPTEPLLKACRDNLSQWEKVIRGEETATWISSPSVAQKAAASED
T1 sequence (O00408 whole entry): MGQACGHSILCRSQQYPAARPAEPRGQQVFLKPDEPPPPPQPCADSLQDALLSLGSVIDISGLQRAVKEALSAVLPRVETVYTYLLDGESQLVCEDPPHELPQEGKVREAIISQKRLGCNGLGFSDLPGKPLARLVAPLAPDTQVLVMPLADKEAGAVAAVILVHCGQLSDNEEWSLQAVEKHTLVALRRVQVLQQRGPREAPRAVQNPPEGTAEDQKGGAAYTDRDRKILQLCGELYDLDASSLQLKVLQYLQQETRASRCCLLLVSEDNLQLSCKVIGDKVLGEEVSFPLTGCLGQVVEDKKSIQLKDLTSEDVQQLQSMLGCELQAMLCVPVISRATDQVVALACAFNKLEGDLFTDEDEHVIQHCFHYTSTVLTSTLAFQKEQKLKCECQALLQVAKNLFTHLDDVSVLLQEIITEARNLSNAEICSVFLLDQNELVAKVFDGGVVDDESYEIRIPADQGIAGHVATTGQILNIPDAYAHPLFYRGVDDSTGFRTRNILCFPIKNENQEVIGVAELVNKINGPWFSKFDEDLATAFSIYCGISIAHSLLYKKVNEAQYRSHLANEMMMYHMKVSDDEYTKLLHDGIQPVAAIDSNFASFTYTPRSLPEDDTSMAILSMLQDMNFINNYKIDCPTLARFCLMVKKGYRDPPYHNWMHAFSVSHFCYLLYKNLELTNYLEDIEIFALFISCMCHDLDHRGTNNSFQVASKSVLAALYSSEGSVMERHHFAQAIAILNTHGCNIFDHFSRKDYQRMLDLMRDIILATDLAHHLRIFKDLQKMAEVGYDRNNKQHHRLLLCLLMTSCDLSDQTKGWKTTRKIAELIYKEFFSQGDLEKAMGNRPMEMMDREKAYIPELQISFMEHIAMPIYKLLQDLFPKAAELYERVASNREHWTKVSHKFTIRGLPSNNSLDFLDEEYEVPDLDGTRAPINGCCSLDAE
T2 sequence (Q14432 whole entry): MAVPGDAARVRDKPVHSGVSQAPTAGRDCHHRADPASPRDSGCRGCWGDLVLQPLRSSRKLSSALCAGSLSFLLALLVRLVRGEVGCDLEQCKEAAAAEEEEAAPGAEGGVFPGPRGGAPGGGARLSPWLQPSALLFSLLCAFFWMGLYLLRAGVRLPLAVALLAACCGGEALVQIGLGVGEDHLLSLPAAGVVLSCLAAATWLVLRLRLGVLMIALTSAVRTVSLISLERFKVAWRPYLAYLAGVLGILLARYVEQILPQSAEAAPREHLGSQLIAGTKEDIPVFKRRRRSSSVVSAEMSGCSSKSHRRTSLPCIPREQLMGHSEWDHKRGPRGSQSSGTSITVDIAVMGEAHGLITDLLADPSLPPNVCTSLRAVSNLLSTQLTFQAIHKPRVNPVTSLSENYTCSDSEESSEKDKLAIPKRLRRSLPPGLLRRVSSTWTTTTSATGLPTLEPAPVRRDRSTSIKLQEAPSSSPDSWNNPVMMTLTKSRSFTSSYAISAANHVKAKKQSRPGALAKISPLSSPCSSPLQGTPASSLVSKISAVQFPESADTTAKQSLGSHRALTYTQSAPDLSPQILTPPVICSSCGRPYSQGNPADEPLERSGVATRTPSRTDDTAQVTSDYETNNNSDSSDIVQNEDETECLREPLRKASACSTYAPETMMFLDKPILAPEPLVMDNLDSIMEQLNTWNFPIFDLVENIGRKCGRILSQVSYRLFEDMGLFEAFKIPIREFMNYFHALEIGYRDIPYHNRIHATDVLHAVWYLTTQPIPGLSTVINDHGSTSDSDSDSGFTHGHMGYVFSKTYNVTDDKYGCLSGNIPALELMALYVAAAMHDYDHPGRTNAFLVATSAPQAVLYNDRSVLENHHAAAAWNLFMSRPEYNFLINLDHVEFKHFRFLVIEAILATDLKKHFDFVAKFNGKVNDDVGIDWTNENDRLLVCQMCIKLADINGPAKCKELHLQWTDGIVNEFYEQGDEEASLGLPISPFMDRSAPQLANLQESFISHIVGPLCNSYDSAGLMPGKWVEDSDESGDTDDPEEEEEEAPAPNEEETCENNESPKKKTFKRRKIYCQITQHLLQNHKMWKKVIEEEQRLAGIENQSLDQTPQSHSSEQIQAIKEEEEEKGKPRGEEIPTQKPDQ

O=C(c1ccc2ccccc2c1)N1[C@H]2CC[C@H](c3cc(C(F)F)nc4ncnn34)[C@@H]1CC2 [Compound 319]
Emax [1]: 100% | IC50 [1, 4]: 1.12 nM | IC50 [2]: 1020 nM | Emax ([2]; read-out: Emax): 95% | Emax [3, 5]: 99% | IC50 [3, 6]: 263 nM | receptor occupancy at 10 mg/kg (PDE2A; route PO (oral)): 37%

COc1cc(C(=O)N2[C@H]3CC[C@H](c4cc(C(F)F)nc5ncnn45)[C@@H]2CC3)cc(C)n1 [Compound 290]
Emax [1]: 98% | IC50 [1, 4]: 5.89 nM | IC50 [2]: 6920 nM | Emax ([2]; read-out: Emax): 53% | Emax [3, 5]: 89% | IC50 [3, 6]: 1410 nM | receptor occupancy at 10 mg/kg (PDE2A; route PO (oral)): -3%

COc1cccc2c1OCC(C(=O)N1CC[C@@H](C)[C@H](c3cc(C(F)F)nc4ncnn34)C1)=C2 [Compound 267]
Emax [1]: 102% | IC50 [1, 4]: 0.398 nM | IC50 [2]: 61.7 nM | Emax ([2]; read-out: Emax): 100% | Emax [3, 7]: 99% | IC50 [3, 8]: 11.2 nM | Emax [3, 5]: 99% | IC50 [3, 6]: 11.2 nM | receptor occupancy at 10 mg/kg (PDE2A; po, route PO (oral)): 59% | ED50 (PDE2A; route PO (oral), drug dose producing 50% receptor occupancy): 11 mg/kg

Cc1nc2ccc(C(=O)N3[C@H]4CC[C@H](c5cc(C(F)F)nc6ncnn56)[C@@H]3CC4)cc2o1 [Compound 303]
Emax [1]: 99% | IC50 [1, 4]: 7.08 nM | IC50 [2]: 6610 nM | Emax ([2]; read-out: Emax): 57% | Emax [3, 5]: 95% | IC50 [3, 6]: 537 nM | receptor occupancy at 10 mg/kg (PDE2A; route PO (oral)): 17%

Cc1cc(C(=O)N2CC[C@@H](C)[C@H](c3cc(C(F)F)nc4ncnn34)C2)c(Cl)cn1 [Compound 51]
IC50 [1, 9]: 5.5 nM | Emax ([1]; human recombinant PDE2A): 101% | Emax [1]: 101% | IC50 [1, 4]: 5.5 nM | IC50 [2]: > 10000 nM | Emax ([2]; read-out: Emax): 44% | Emax [3, 7]: 86% | IC50 [3, 8]: 1260 nM | receptor occupancy at 10 mg/kg (PDE2A; po, route PO (oral)): 20%

COc1ncc(C(=O)N2CC[C@@H](C)[C@H](c3cc(C(F)F)nc4ncnn34)C2)cc1C1CC1 [Compound 73]
IC50 [1, 9]: 1.95 nM | Emax ([1]; human recombinant PDE2A): 101% | Emax [1]: 101% | IC50 [1, 4]: 1.95 nM | IC50 [2]: 2630 nM | Emax ([2]; read-out: Emax): 83% | Emax [3, 7]: 98% | IC50 [3, 8]: 219 nM | receptor occupancy at 10 mg/kg (PDE2A; po, route PO (oral)): 0%

Cc1ccc2cc(C(=O)N3CC[C@@H](C)[C@H](c4cc(C(F)F)nc5ncnn45)C3)c(C)nc2c1 [Compound 60]
IC50 [1, 9]: 0.851 nM | Emax ([1]; human recombinant PDE2A): 100% | Emax [1]: 100% | IC50 [1, 4]: 0.851 nM | IC50 [2]: 1100 nM | Emax ([2]; read-out: Emax): 92% | Emax [3, 7]: 97% | IC50 [3, 8]: 151 nM | receptor occupancy at 10 mg/kg (PDE2A; po, route PO (oral)): 32%

C[C@@H]1CCN(C(=O)c2cccc(C#N)c2)C[C@H]1c1cc(C(F)F)nc2ncnn12 [Compound 197]
IC50 [1, 9]: 10.2 nM | Emax ([1]; human recombinant PDE2A): 98% | Emax [1]: 98% | IC50 [1, 4]: 10.2 nM | IC50 [2]: > 10000 nM | Emax ([2]; read-out: Emax): 42% | Emax [3, 7]: 96% | IC50 [3, 8]: 209 nM | receptor occupancy at 10 mg/kg (PDE2A; po, route PO (oral)): 8%

O=C(c1ccc2cnccc2c1)N1[C@H]2CC[C@H](c3cc(C(F)F)nc4ncnn34)[C@@H]1CC2 [Compound 314]
Emax [1]: 100% | IC50 [1, 4]: 5.75 nM | IC50 [2]: 3550 nM | Emax ([2]; read-out: Emax): 73% | Emax [3, 5]: 91% | IC50 [3, 6]: 933 nM | receptor occupancy at 10 mg/kg (PDE2A; route PO (oral)): 5%

Cc1cc([C@H]2CN(C(=O)c3ccc4ncsc4c3)CC[C@@H]2C)n2ncnc2n1 [Compound 2b]
IC50 ([1]; hPDE2A pIC50): 19.1 nM | IC50 [1, 10]: 19.1 nM | Emax [1]: 100% | IC50 [2]: > 10000 nM | Emax ([2]; read-out: Emax): 31% | Emax [3, 7]: 95% | IC50 [3, 8]: 269 nM | receptor occupancy at 10 mg/kg (PDE2A; sc, route SC (subcutaneous)): 3%

Cc1cc(C(=O)N2CC[C@H](C)[C@@H](c3cc(C(F)F)nc4ncnn34)C2)cc(C)n1 [Compound 220]
hPDE2A Emax [1]: 54 | IC50 ([1]; hPDE2A pIC50): 302 nM | IC50 [2]: > 10000 nM | Emax [2]: 8% | Emax [3, 5]: 41% | IC50 [3, 6]: > 10000 nM | receptor occupancy at 10 mg/kg (PDE2A; po, route PO (oral)): -8% | ED50 (PDE2A; po): > 80 mg/kg

Cc1cc(C(=O)N2[C@H]3CC[C@H](c4cc(C(F)F)nc5ncnn45)[C@@H]2CC3)cc(C)c1C#N [Compound 299]
Emax [1]: 99% | IC50 [1, 4]: 7.76 nM | IC50 [2]: > 10000 nM | Emax ([2]; read-out: Emax): 40% | Emax [3, 5]: 84% | IC50 [3, 6]: 2140 nM | receptor occupancy at 10 mg/kg (PDE2A; route PO (oral)): 31%

Cc1cc(C(=O)N2[C@H]3CC[C@H](c4cc(C(F)F)nc5ncnn45)[C@@H]2CC3)cnc1C [Compound 366]
Emax [1]: 99% | IC50 [1, 4]: 10.2 nM | IC50 [2]: > 10000 nM | Emax ([2]; read-out: Emax): 22% | Emax [3, 5]: 64% | IC50 [3, 6]: 5750 nM | receptor occupancy at 10 mg/kg (PDE2A; route PO (oral)): 18%

C[C@@H]1CCN(C(=O)c2ccc(F)c(O)c2)C[C@H]1c1cc(C(F)F)nc2ncnn12 [Compound 186]
IC50 [1, 9]: 10.7 nM | Emax ([1]; human recombinant PDE2A): 100% | Emax [1]: 100% | IC50 [1, 4]: 10.7 nM | IC50 [2]: 6030 nM | Emax ([2]; read-out: Emax): 69% | Emax [3, 7]: 95% | IC50 [3, 8]: 339 nM | receptor occupancy at 10 mg/kg (PDE2A; sc, route SC (subcutaneous)): 8%

Cc1cc(C(=O)N2CC[C@@H](C)[C@H](c3cc(C(F)F)nc4ncnn34)C2)cc(Cl)n1 [Compound 83]
IC50 ([1]; hPDE2A pIC50): 0.933 nM | IC50 [1, 10]: 0.933 nM | Emax [1]: 100% | IC50 [2]: 7940 nM | Emax ([2]; read-out: Emax): 58% | Emax [3, 7]: 98% | IC50 [3, 8]: 97.7 nM | receptor occupancy at 10 mg/kg (PDE2A; po, route PO (oral)): 82%

Cc1nc2cc(C(=O)N3CC[C@@H](C)[C@H](c4cc(C(F)F)nc5ncnn45)C3)ccc2o1 [Compound 188]
IC50 [1, 9]: 8.51 nM | Emax ([1]; human recombinant PDE2A): 99% | Emax [1]: 99% | IC50 [1, 4]: 8.51 nM | IC50 [2]: 1550 nM | Emax ([2]; read-out: Emax): 87% | Emax [3, 7]: 98% | IC50 [3, 8]: 209 nM | receptor occupancy at 10 mg/kg (PDE2A; sc, route SC (subcutaneous)): 2%
